# Test results reported in patent US20260224563A1, “CRYSTALLINE FORMS OF 6-(3-((5-CHLORO-2-METHOXYPYRIDINE)-3-SULFONAMIDO)-2,6-DIFLUOROPHENYL)-N-METHYLIMIDAZO[1,5-A]PYRAZINE-1-CARBOXAMIDE AND METHODS FOR USING THE SAME” (HIBERCELL, INC., priority 2023, published 2026).
# Like-named read-outs stand apart in the source and are kept apart here.
# Experiment: Multicenter, open-label, Phase 1a/b study of HC-7366 in subjects with advanced solid tumors (safety, PK)
# Assay type: in vivo
# Conditions: for AUC(0-t) / Vd/F / Tmax / Cmax / half-life / % AUCextrap / CL/F / DAUC0-24 / DAUC0-last / DAUC0-∞ / DCmax / tlast / LR / AUC / AUC(0-inf): human; for AUC(0-t) / Vd/F / Tmax / Cmax / half-life / AUC / AUC(0-inf): plasma; for AUC(0-t) / Vd/F / Tmax / Cmax / half-life: po; for Vd/F: read-out: Vz/F; for LR: linearity ratio; for AUC: read-out: AUC0-τ
# Text: Identify the maximum tolerated dose (MTD) and/or recommended Phase 2 dose (RP2D) of HC-7366, and evaluate the safety, tolerability, and dose-limiting toxicities (DLTs) of HC-7366 using Form III of the potassium salt of the compound of formula (I) (see Example 6, also referred to within this example as HC-7366-K), in subjects with advanced solid tumors, including: • a. occurrence of DLTs • b. incidence and severity of treatment-emergent adverse events (TEAEs) and treatment related TEAEs according to National Cancer Institute Common Terminology Criteria for Adverse Events (NCI CTCAE) v 5.0 • c. incidence of TEAEs leading to premature discontinuation • d. incidence of laboratory abnormalities, based on NCI CTCAE grades of hematology, serum chemistry, and urinalysis test results • e. incidence of abnormalities observed in 12 lead ECG parameters • f. incidence of abnormalities observed in vital signs measurements
# Determine plasma concentration and pharmacokinetic (PK) parameters following treatment with HC-7366 using Form III of the potassium salt of the compound of formula (I) (see Example 6, also referred to within this example as HC-7366-K).
# Preliminarily assess the potential antitumor activity of HC-7366 in terms of response rate, disease stabilization, and survival outcomes by assessing: • a. Overall response rate (ORR) to HC-7366 using response evaluation criteria in solid tumors (iRECIST) • b. Duration of response (DOR) to HC-7366 using iRECIST • c. Time to treatment failure (TTF) • d. Progression free survival (PFS) using iRECIST • e. Overall survival (OS)
# This is a first in human, multicenter, open label, Phase 1a and 1b dose-escalation and dose-expansion study to establish the maximum tolerated dose, recommended Phase 2 dose, and evaluate the safety and tolerability of QD oral dosing of HC 7366 in a dose escalating fashion in subjects with advanced solid tumors. Up to 40 subjects were enrolled into the Phase 1a dose-escalation part of the study. The study was conducted in the United States at approximately 7 to 10 sites.
# Every effort was made to ensure approximately 50% of all subjects enrolled into Phase 1a of this study are subjects with the tumors of special interest including squamous cell carcinoma of the head and neck, colorectal cancer, non-small cell lung cancer, and transitional cell carcinoma of the bladder. […] All subjects in Phase 1b enrolled with clear cell renal cell carcinoma. The Phase 1a study followed a traditional 3+3 design. The starting dose level was 10 mg QD, escalating to 20, 40, 75, 125, and 150 mg QD as safety allows. All doses were administered in the fasting state with water at least 1 hour before food or at least 2 hours after food.
# The Phase 1b dose-expansion was at a single dose level of 75 mg based on the safety, tolerability, PK/PD results from Phase 1a to obtain additional safety and preliminary efficacy information. Up to 30 subjects were enrolled in the Phase 1b portion of the study at the 75 mg dose. Replacement patients were enrolled as necessary. Subjects were dosed until unacceptable toxicity, disease progression per immune-related Response Evaluation Criteria in Solid Tumors, discontinuation of treatment for other protocol allowed reason (eg, subject refusal), any other administrative reasons, or after 2 years of treatment, whichever occurs first.
# For scheduling purposes, dosing in Phase 1a and 1b occurred in 3 week cycles and computed tomography scans were conducted once every 6 weeks from Cycle 1/Day 1, with the first postbaseline scan after 6 weeks of dosing (precycle 3) until confirmed disease progression, death, start of new anticancer therapy, withdrawal of consent, or end of study, whichever occurs first.
# Subjects of Phase 1a and 1b spent Cycle 1/Day 1 (C1D1) in the clinic followed by an optional overnight stay for safety monitoring and PK sampling. Subjects were hospitalized (optional) for administration of the first 2 doses: C1D1 and Cycle 1/Day 2 (C1D2). […]
# [1] = 75 mg, multiple once daily oral 75 mg (N = 7), Cycle 1 Day 21, geometric mean
# [2] = 75 mg, single oral dose 75 mg (N = 10), Cycle 1 Day 1, geometric mean
# [3] = 125 mg, multiple once daily oral 125 mg (N = 1), Cycle 1 Day 21
# [4] = 125 mg, single oral dose 125 mg (N = 6), Cycle 1 Day 1, geometric mean
# [5] = single oral dose 10 mg (N = 3), Cycle 1 Day 1, geometric mean
# [6] = single oral dose 20 mg (N = 3), Cycle 1 Day 1, geometric mean
# [7] = single oral dose 40 mg (N = 11), Cycle 1 Day 1, geometric mean
# [8] = single oral dose 75 mg (N = 10), Cycle 1 Day 1, geometric mean
# [9] = single oral dose 125 mg (N = 6), Cycle 1 Day 1, geometric mean
# [10] = multiple once daily oral 10 mg (N = 3), Cycle 1 Day 21, geometric mean
# [11] = multiple once daily oral 20 mg (N = 3), Cycle 1 Day 21, geometric mean
# [12] = multiple once daily oral 40 mg (N = 8), Cycle 1 Day 21, geometric mean
# [13] = multiple once daily oral 75 mg (N = 7), Cycle 1 Day 21, geometric mean
# [14] = multiple once daily oral 125 mg (N = 1), Cycle 1 Day 21
compound,measurement,setting,value
"CNC(=O)c1ncn2cc(-c3c(F)ccc(NS(=O)(=O)c4cc(Cl)cnc4OC)c3F)ncc12 [HC-7366, 6-(3-((5-chloro-2-methoxypyridine)-3-sulfonamido)-2,6-difluorophenyl)-N-methylimidazo[1,5-a]pyrazine-1-carboxamide]",AUC(0-t),"40 mg, single oral dose 40 mg (N = 11), Cycle 1 Day 1, geometric mean, read-out: AUC0-24",52900 ng·h/mL
same,AUC(0-t),"40 mg, single oral dose 40 mg (N = 11), Cycle 1 Day 1, geometric mean, read-out: AUC0-last",52900 ng·h/mL
same,Vd/F,"40 mg, single oral dose 40 mg (N = 11), Cycle 1 Day 1, geometric mean",10.5 L
same,Tmax,"40 mg, single oral dose 40 mg (N = 11), Cycle 1 Day 1, median",2 h
same,Cmax,[1],14300 ng/mL
same,half-life,[1],17.8 h
same,AUC(0-t),"75 mg, multiple once daily oral 75 mg (N = 7), Cycle 1 Day 21, geometric mean, read-out: AUC0-last",166000 ng·h/mL
same,Vd/F,[1],9.51 L
same,Tmax,"75 mg, multiple once daily oral 75 mg (N = 7), Cycle 1 Day 21, median",2 h
same,Cmax,[2],10200 ng/mL
same,half-life,[2],15.2 h
same,AUC(0-t),"75 mg, single oral dose 75 mg (N = 10), Cycle 1 Day 1, geometric mean, read-out: AUC0-24",100000 ng·h/mL
same,AUC(0-t),"75 mg, single oral dose 75 mg (N = 10), Cycle 1 Day 1, geometric mean, read-out: AUC0-last",100000 ng·h/mL
same,Vd/F,[2],11.2 L
same,Tmax,"75 mg, single oral dose 75 mg (N = 10), Cycle 1 Day 1, median",2 h
same,Cmax,[3],38200 ng/mL
same,half-life,[3],16.5 h
same,AUC(0-t),"125 mg, multiple once daily oral 125 mg (N = 1), Cycle 1 Day 21, read-out: AUC0-last",260000 ng·h/mL
same,Vd/F,[3],7.4 L
same,Cmax,[4],18800 ng/mL
same,half-life,[4],14 h
same,AUC(0-t),"125 mg, single oral dose 125 mg (N = 6), Cycle 1 Day 1, geometric mean, read-out: AUC0-24",216000 ng·h/mL
same,AUC(0-t),"125 mg, single oral dose 125 mg (N = 6), Cycle 1 Day 1, geometric mean, read-out: AUC0-last",204000 ng·h/mL
same,Vd/F,[4],7.85 L
same,Tmax,"125 mg, single oral dose 125 mg (N = 6), Cycle 1 Day 1, median",2 h
same,% AUCextrap,[5],22.7%
same,CL/F,[5],0.508 L/h
same,DAUC0-24,[5],1510 ng·h/mL/mg
same,DAUC0-last,[5],1510 ng·h/mL/mg
same,DAUC0-∞,[5],1970 ng·h/mL/mg
same,DCmax,[5],145 ng/mL/mg
same,tlast,"single oral dose 10 mg (N = 3), Cycle 1 Day 1, median",24.00 h
same,% AUCextrap,[6],17.9%
same,CL/F,[6],0.544 L/h
same,DAUC0-24,[6],1440 ng·h/mL/mg
same,DAUC0-last,[6],1440 ng·h/mL/mg
same,DAUC0-∞,[6],1840 ng·h/mL/mg
same,DCmax,[6],116 ng/mL/mg
same,tlast,"single oral dose 20 mg (N = 3), Cycle 1 Day 1, median",24.00 h
same,% AUCextrap,[7],31.0%
same,CL/F,[7],0.491 L/h
same,DAUC0-24,[7],1320 ng·h/mL/mg
same,DAUC0-last,[7],1320 ng·h/mL/mg
same,DAUC0-∞,[7],2040 ng·h/mL/mg
same,DCmax,[7],113 ng/mL/mg
same,tlast,"single oral dose 40 mg (N = 11), Cycle 1 Day 1, median",24.00 h
same,% AUCextrap,[8],30.2%
same,CL/F,[8],0.508 L/h
same,DAUC0-24,[8],1340 ng·h/mL/mg
same,DAUC0-last,[8],1340 ng·h/mL/mg
same,DAUC0-∞,[8],1970 ng·h/mL/mg
same,DCmax,[8],136 ng/mL/mg
same,tlast,"single oral dose 75 mg (N = 10), Cycle 1 Day 1, median",24.00 h
same,% AUCextrap,[9],33.6%
same,CL/F,[9],0.390 L/h
same,DAUC0-24,[9],1730 ng·h/mL/mg
same,DAUC0-last,[9],1630 ng·h/mL/mg
same,DAUC0-∞,[9],2570 ng·h/mL/mg
same,DCmax,[9],150 ng/mL/mg
same,tlast,"single oral dose 125 mg (N = 6), Cycle 1 Day 1, median",24.00 h
same,LR,[10],1.11
same,LR,[11],1.14
same,LR,[12],1.11
same,LR,[13],1.22
same,LR,[14],0.759
same,subjects who discontinued treatment due to an AE,"of 34 treated subjects, 10 to 125 mg cohorts",5 subjects
same,AUC,[10],21900 ng·h/mL
same,AUC,[11],41900 ng·h/mL
same,AUC,[12],99300 ng·h/mL
same,AUC,[13],187000 ng·h/mL
same,AUC,[14],401000 ng·h/mL
same,AUC(0-inf),[5],19700 ng·h/mL
same,AUC(0-inf),[6],36800 ng·h/mL
same,AUC(0-inf),[7],81500 ng·h/mL
same,AUC(0-inf),[8],148000 ng·h/mL
same,AUC(0-inf),[9],321000 ng·h/mL
